From US9353048B2, “Compound as KCNQ potassium channel agonist, preparation method therefor and use thereof” (SHANGHAI INSTITUTE OF MATERIA MEDICA, CHINESE ACADEMY OF …, priority 2011, dated 2016)
Counter-ions that a name gives are not always drawn. Like-named read-outs stand apart in the source and are kept apart here.

Tests used:
KCNQ channels = experiment: Whole-cell voltage-clamp electrophysiological recording in CHO cells transfected with KCNQ channels; assay type: cell-based; details: for I/I0: activation multiple, maximum induced current at −10 mV testing voltage after administration (10 μM) vs before, >1 activating, <1 inhibiting; for ΔV1/2: shift of V1/2 of current activation curve, negative sign = left-ward shift, CHO cells
Protocol: The formulation of culture fluid for Chinese hamster […] (CHO) (Culture Collection of Chinese Academy of Sciences): 50/50 DMEM/F-12 (Cellgro, Mamassas, Va.), 10% fetal bovine serum (FBS) (Gibco, Australia) and 2 mM […] (Invitrogen). […] Lipofectamine2000™ agent (Invitrogen) was used for Transfection according to the protocol thereof. […] After cotransfection with GFP (green fluorescent protein), transfected cells could be determined under a fluorescence microscopy.
Whole-cell voltage-clamp recording was performed by using Axopatch-200B amplifier (Molecular Devices, Sunnyvale, Calif.) at room temperature. Borosilicate glass capillary tubes (World Precision Instruments, Sarasota, Fla.) were drawn into electrodes. The electric resistance of the electrodes filled with an intracellular fluid is 3 to 5 MΩ. […] During the recording, an extracellular fluid was continuously perfused by using a BPS perfusion system (ALA Scientific Instruments, Westburg, N.Y.). The formulation of the extracellular fluid was as follows: 140 mM NaCl, 5 mM KCl, 2 mM CaCl2, 1.5 mM MgCl2, 10 mM HEPES and 10 mM glucose (the pH value of the extracellular fluid was adjusted to 7.4 with NaOH). […] Resistors were connected in series to compensate 60 to 80% of signal loss. At present, multivoltage scheme was generally adopted, wherein the clamp voltage was set at −100 mV. Current was induced in cells by a series of 2000 ms stimulating voltage (from −90 mV up to +50 mV, with interval of 10 mV).
In the following table, V1/2 is the voltage at which 50% of cells were activated, ΔV1/2 is amount of a left-ward shift of V1/2, negative sign (−) represents a left-ward shift of the current activation curve and positive sign (+) represents a right-ward shift of the curve. I/I0 is the activation multiple, wherein, I0 is the maximum induced current produced under stimulation of −10 mV testing voltage, I is the maximum induced current produced under stimulation of −10 mV testing voltage after administration (10 μM), I/I0>1 represents activating activity, and I/I0<1 represents inhibiting activity. N is the number of tested cells. NT represents non-tested.

[1] = test system: Convulsion Induced by Pentylenetetrazole (PTZ); experiment: Convulsion induced by pentylenetetrazole (PTZ), compounds by gastric lavage, C57BL/6J mice; assay type: in vivo; details: 30 mg/kg gastric lavage
Protocol: The compounds to be tested were administrated to animals by gastric lavage (30 mg/kg); one hour later, pentylenetetrazole was administrated by subcutaneous injection (PTZ 80 mg/kg); and response of animals were observed within a period of 60 min.

[2] = Solubility in water (treatment of samples)
[3] = test system: Animal Models Induced by PTZ (Pentylenetetrazole); experiment: PTZ test, compounds by intraperitoneal injection, KM mice; assay type: in vivo; details: intraperitoneal injection, same dosage, PTZ and MES tests; formate dihydrochloride
Protocol: Compounds to be tested were administrated by intraperitoneal injection (10 mg/kg, 5 mg/kg, 2.5 mg/kg, 0.1 ml/10 g).

[4] = test system: Animal Models Induced by MES; experiment: MES test, compounds orally administrated (gastric lavage), KM mice; assay type: in vivo; details: gastric lavage; formate dihydrochloride
Protocol: One time of electrical stimulation was applied to animals through ear clip electrodes, and a convulsion characterized by a tonic hind limb extension was observed. One day before the test, animals were screened in the above procedure to record the values of MES.
1 hour later, MES was applied according to parameters set the last day, and response of animals were observed and recorded immediately.

[5] = Distribution of K20.2HCl and K21.2HCl in mice's plasma and brain tissue; assay type: in vivo, KM mice; details: for Kp: brain, read-out: concentration of prototype drug in brain tissue relative to plasma
From the text: Two hours after administration, animal were fed uniformly. Specific arrangement was as following table.
Then the residual liquid was absorbed to dryness.

[6] = test system: Animal Models Induced by PTZ; experiment: PTZ test, compounds orally administrated (gastric lavage), KM mice; details: gastric lavage; formate dihydrochloride
Protocol: Response of animals were observed immediately and recorded within a period of 1 h.

[7] = K21.2HCl 5 mg/kg gastric lavage

Structure (SMILES): C=C(/C=C/CN)CN(Cc1ccc(F)cc1)c1ccc(NC(=O)OCC)c(NC(=O)OCC)c1 [Compound K39, ethyl 2-(ethoxycarbonyl-imino)-4-[N-parafluorobenzyl-N-1-(6-amino-2-alkenyl-3-hexylene)-imino]-aniline formate]
- I/I0 (KCNQ channels): 1.03 ± 0.11

Structure (SMILES): C#CCN(Cc1ccc(F)cc1)c1ccc(NC(=O)OCC)cc1 [Compound K8]
- I/I0 (KCNQ channels): 1.99 ± 0.37
- ΔV1/2 (KCNQ channels): −7.3 ± 2.5 mV

Structure (SMILES): C#CCN(Cc1ccc(F)cc1)c1ccc(NC(=O)OCC(C)C)cc1 [Compound K5]
- I/I0 (KCNQ channels): 1.23 ± 0.08
- ΔV1/2 (KCNQ channels): −14.3 ± 3.3 mV

Structure (SMILES): CCC#CCN(Cc1ccc(F)cc1)c1ccc(NC(=O)OCC)c(NC(=O)OCC)c1 [Compound K24]
- I/I0 (KCNQ channels): 1.2 ± 0.1
- ΔV1/2 (KCNQ channels): −1.87 ± 2.5 mV

Structure (SMILES): C#CCN(Cc1ccc(F)cc1)c1ccc(NC(=O)OC)c(F)c1 [Compound K15]
- I/I0 (KCNQ channels): 2.09 ± 0.31
- ΔV1/2 (KCNQ channels): −22.0 ± 1.5 mV

Structure (SMILES): C#CCN(Cc1ccc(F)c(C(F)(F)F)c1)c1ccccc1NC(=O)OC [Compound K14]
- I/I0 (KCNQ channels): 1.43 ± 0.04
- ΔV1/2 (KCNQ channels): −14.7 ± 2.1 mV

Structure (SMILES): C=C(C)CN(Cc1ccc(F)cc1)c1ccc(NC(=O)OC(C)(C)C)c(NC(=O)OC(C)(C)C)c1 [Compound K29]
- I/I0 (KCNQ channels): 1.24 ± 0.10

Structure (SMILES): C#CCN(Cc1cccc(F)c1)c1ccc(NC(=O)OC)cc1 [Compound K12]
- I/I0 (KCNQ channels): 2.33 ± 0.17
- ΔV1/2 (KCNQ channels): −21.1 ± 1.9 mV

Structure (SMILES): C#CCCOC(=O)Nc1ccc(N(CC#C)Cc2ccc(F)cc2)cc1N [Compound K33]
- ΔV1/2 (KCNQ channels): −36.8 ± 3.3 mV

Structure (SMILES): C=C(C)CN(Cc1ccc(F)cc1)c1ccc(NC(=O)OC(C)C)c(NC(=O)OC(C)C)c1 [Compound K30]
- I/I0 (KCNQ channels): 1.57 ± 0.25

Structure (SMILES): COC(=O)Nc1ccc(NCc2ccc(F)cc2)cc1 [Compound K1]
- I/I0 (KCNQ channels): 2.84 ± 0.08
- ΔV1/2 (KCNQ channels): −8.1 ± 3.1 mV
- Latency period of clonus ([1]; PTZ 80 mg/kg s.c. 1 h later): 250 ± 114 s
- Latency period of whole-body tonic seizures ([1]; PTZ 80 mg/kg s.c. 1 h later): 1785 ± 408 s
- Mortality rate ([1]; PTZ 80 mg/kg s.c. 1 h later): 3/10
- Incidence rate of convulsion ([1]; PTZ 80 mg/kg s.c. 1 h later, observed 60 min): 4/10
- solubility in water (in words) [2]: can not be easily dissolved in water

Structure (SMILES): C#CCN(Cc1ccc(F)c(C(F)(F)F)c1)c1ccc(F)c(NC(=O)OC)c1 [Compound K11]
- I/I0 (KCNQ channels): 2.24 ± 0.36
- ΔV1/2 (KCNQ channels): −15.7 ± 1.0 mV
- anti-convulsive effect (in words) ([1]; PTZ-induced convulsion): comparable anti-convulsive effect

Structure (SMILES): COC(=O)Nc1ccc(N(CC=C(C)C)Cc2ccc(F)cc2)cc1NC(=O)OC [Compound K31]
- I/I0 (KCNQ channels): 1.36 ± 0.13

Structure (SMILES): CCOC(=O)Nc1ccc(N(CC2=CCCCC2)Cc2ccc(F)cc2)cc1NC(=O)OCC [Compound K38]
- I/I0 (KCNQ channels): 0.16 ± 0.02

Structure (SMILES): CC(=O)Nc1ccc(NCc2ccc(F)cc2)cc1 [Compound K2]
- I/I0 (KCNQ channels): 1.50 ± 0.08
- ΔV1/2 (KCNQ channels): −3.0 ± 2.0 mV

Structure (SMILES): C#CCN(Cc1ccc(F)cc1)c1ccc(NC(=O)OCC)c(N)c1 [Compound K21.2HCl, ethyl 2-amino-4-(N-parafluorobenzyl-N-propargyl-imino)-aniline formate dihydrochloride]
- anti-convulsive effect compared with retigabine (in words) [3]: superior anti-convulsive effect
- effect in MES test (in words) [4]: comparable effect
- exposure amount of metabolite retigabine in brain tissue relative to prototype drug [5, 7]: 4.6%
- exposure amount of metabolite retigabine in plasma relative to prototype drug [5, 7]: 5.4%
- Kp ([5]; male, KM, mouse, oral, 5 mg/kg gastric lavage): 2.4
- Tmax ([5]; male, KM, mouse, plasma or brain tissue, oral, K21.2HCl 5 mg/kg gastric lavage, read-out: time to reach the maximum concentrations (Tmax) of prototype drug in plasma or brain tissue): 15 min
- effect in PTZ test (in words) [6]: obviously inhibit the tonic seizures

Structure (SMILES): C#CCN(Cc1ccc(F)c(F)c1)c1ccc(NC(=O)OC)cc1 [Compound K19]
- I/I0 (KCNQ channels): 2.52 ± 0.23
- ΔV1/2 (KCNQ channels): −14.9 ± 2.7 mV

Structure (SMILES): C=C(/C=C/CO)CN(Cc1ccc(F)cc1)c1ccc(NC(=O)OCC)c(NC(=O)OCC)c1 [Compound K32, ethyl 2-(ethoxycarbonyl-imino)-4-[N-parafluorobenzyl-N-1-(6-hydroxyl-2-alkenyl-3-hexylene)-imino]-aniline formate]
- I/I0 (KCNQ channels): 1.76 ± 0.09
- ΔV1/2 (KCNQ channels): −6.0 ± 1.5 mV

Structure (SMILES): CCCCCOC(=O)Nc1ccc(N(Cc2ccc(F)cc2)C(=O)OCCCCC)cc1 [Compound K6]
- I/I0 (KCNQ channels): 1.24 ± 0.02
- ΔV1/2 (KCNQ channels): −1.6 ± 3.0 mV

Structure (SMILES): CCOC(=O)Nc1ccc(N(CCCC(C)=O)Cc2ccc(F)cc2)cc1NC(=O)OCC [Compound K26]
- I/I0 (KCNQ channels): 1.25 ± 0.07

Structure (SMILES): C#CCN(Cc1ccccc1F)c1ccc(NC(=O)OC)cc1 [Compound K13]
- I/I0 (KCNQ channels): 2.31 ± 0.36
- ΔV1/2 (KCNQ channels): −7.6 ± 1.9 mV

Structure (SMILES): C#CCN(c1cccc(NC(=O)OC)c1)C(C)c1ccc(F)cc1 (stereo not drawn) [Compound K16]
- I/I0 (KCNQ channels): 1.47 ± 0.10
- ΔV1/2 (KCNQ channels): −20.6 ± 4.5 mV

Structure (SMILES): C=CCN(Cc1ccc(F)cc1)c1ccc2[nH]c(=O)[nH]c2c1 [Compound K34, 5-(N-parafluorobenzyl-N-allyl-imino)-benzimidazole-2-one]
- I/I0 (KCNQ channels): 1.44 ± 0.16

Structure (SMILES): C=CCOC(=O)Nc1ccc(N(Cc2ccc(F)cc2)CC(C)C)cc1NC(=O)OCC=C [Compound K27]
- I/I0 (KCNQ channels): 1.52 ± 0.17

Structure (SMILES): C#CCN(Cc1ccc(F)cc1)c1ccc(NC(=O)OC)c(NC(=O)OC)c1 [Compound K22, methyl 2-(methoxycarbonyl-imino)-4-(N-parafluorobenzyl-N-propargyl-imino)-aniline formate]
- I/I0 (KCNQ channels): 2.10 ± 0.35
- ΔV1/2 (KCNQ channels): −27.31 ± 3.9 mV

Structure (SMILES): C=CCN(Cc1ccc(F)cc1)c1ccc(NC(=O)OCC)c(N)c1 [Compound K20, ethyl 2-amino-4-(N-parafluorobenzyl-N-allyl-imino)-aniline formate]
- I/I0 (KCNQ channels): 1.75 ± 0.12
- ΔV1/2 (KCNQ channels): −49.7 ± 3.4 mV
- Kp ([5]; male, KM, mouse, oral, 20 mg/kg gastric lavage): 2.3

Structure (SMILES): C=CCN(Cc1ccc(F)cc1)c1ccc(NC(=O)OCC)cc1 [Compound K7]
- I/I0 (KCNQ channels): 1.35 ± 0.27
- ΔV1/2 (KCNQ channels): −4.7 ± 2.0 mV

Structure (SMILES): C=C(C)CN(Cc1ccc(F)cc1)c1ccc(NC(=O)OC)c(NC(=O)OC)c1 [Compound K28]
- I/I0 (KCNQ channels): 1.43 ± 0.05

Structure (SMILES): C#CCN(Cc1ccc(F)cc1)c1ccc(NC(=O)OCc2ccccc2)cc1 [Compound K4]
- I/I0 (KCNQ channels): 2.09 ± 0.25
- ΔV1/2 (KCNQ channels): −11.5 ± 2.0 mV

Structure (SMILES): C#CCN(Cc1ccc(F)cc1)c1ccc(F)c(NC(=O)OC)c1 [Compound K10, methyl 2-fluoro-5-(N-parafluorobenzyl-N-propargyl-imino)-aniline formate]
- I/I0 (KCNQ channels): 2.75 ± 0.31
- ΔV1/2 (KCNQ channels): −18.7 ± 2.6 mV

Structure (SMILES): C#CCN(Cc1ccc(F)cc1)c1ccc2[nH]c(=O)[nH]c2c1 [Compound K25, 5-(N-parafluorobenzyl-N-propargyl-imino)-benzimidazole-2-one]
- I/I0 (KCNQ channels): 1.8 ± 0.1
- ΔV1/2 (KCNQ channels): −5.8 ± 1.7 mV

Structure (SMILES): CC#CCN(Cc1ccc(F)cc1)c1ccc(NC(=O)OCC)c(NC(=O)OCC)c1 [Compound K23]
- I/I0 (KCNQ channels): 1.44 ± 0.14
- ΔV1/2 (KCNQ channels): −15.34 ± 3.8 mV
